Publication PMC7534258, “Novel temporin L antimicrobial peptides: promoting self-assembling by lipidic tags to tackle superbugs” (Journal of Enzyme Inhibition and Medicinal Chemistry, 2020)
Values after ≈ are worked out from the molar mass of the structure shown. Where a SMILES comes first, the peptide text is derived from it. [ ]: non-standard residue; d: D form. The star is where a group is joined. Tridecanoyl = CCCCCCCCCCCCC(=O)*; Undecanoyl = CCCCCCCCCCC(=O)*; Heptanoyl = CCCCCCC(=O)*; Orn = NCCC[C@H](N)C(=O)O; Pentanoyl = CCCCC(=O)*

Columns and labels:
S. aureus ATCC 25923 = assay: microbe, parasite or virus in culture
Method: (§1) Staphylococcus aureus ATCC 25923, Pseudomonas aeruginosa ATCC 27853 and Klebsiella pneumoniae ATCC BAA-1705 (carbapenemase producer) were obtained from the American Type Culture Collection (Rockville, MD).
(§2) Identification was performed by sub-culturing on Tryptic Soy Agar (TSA, Becton Dickinson) and by biochemical characterisation using the Vitek II system (Biomerieux). The antimicrobial susceptibility testing of all isolates was determined using Vitek II system and results were interpreted according to European Committee on Antimicrobial Susceptibility Testing (EUCAST version 9.0, 2019). P. aeruginosa was cultured in Brain Heart Infusion broth (BHI, OXOID), S. aureus and K. pneumoniae were cultured in Tryptic Soya broth (TSB, OXOID), under aerobic conditions at 37 °C, for 24 h on an orbital shaker at 200 rpm.
(§3) Minimal inhibitory concentrations (MIC) of all the peptides were determined in Mueller–Hinton medium by the broth microdilution assay, following the procedure already described[22]^,[34]. The compounds were added to bacterial suspension in each well yielding a final cell concentration of 1 × 10^6 CFU/ml and a final compound concentration ranging from 0.78 to 100 µM. Negative control wells were set to contain bacteria in Mueller–Hinton broth plus the amount of vehicle (ethanol) used to dilute each compound. Positive controls included vancomycin (2 µg/ml), tobramycin (4 µg/ml), gentamycin (4 µg/ml), and imipenem (8 µg/ml).

[1] = test system: K. pneumoniae ATCC BAA-1705; assay: Broth microdilution MIC, reference strain; assay type: cell-based, Klebsiella pneumoniae
Method: as §1, §2, §3

P. aeruginosa ATCC 27853 = assay: Broth microdilution MIC, reference strain; assay type: cell-based, Pseudomonas aeruginosa; details: 100% growth inhibition after 16–18 h at 37 °C
Method: as §1, §2, §3

Sa1 = assay: microbe, parasite or virus in culture; details: Staphylococcus aureus, MRSA, read-out: Antimicrobial activity (MIC) Sa1
Method: (§4) Clinical strains of P. aeruginosa (Pa1, Pa2 and Pa3), K. pneumoniae (KpCR1, KpCR2 and KpCR3), and S. aureus (Sa1, Sa2 and Sa3) were isolated from bloodstream or pulmonary infections, and belong to a collection of bacterial strains established between 2010 and 2018 at the Department of Molecular Medicine and Medical Biotechnologies (University Federico II, Naples) for research use.
as §2, §3

Sa2 = assay: microbe, parasite or virus in culture; details: Staphylococcus aureus, MRSA, read-out: Antimicrobial activity (MIC) Sa2
Method: as §4, §2, §3

Sa3 = assay: microbe, parasite or virus in culture; details: Staphylococcus aureus, MRSA, read-out: Antimicrobial activity (MIC) Sa3
Method: as §4, §2, §3

[2] = 100% growth inhibition after 16–18 h at 37 °C

Compound: CCCCCCC(=O)N[C@@H](Cc1ccccc1)C(=O)N[C@H](C(=O)N1CCC[C@H]1C(=O)N[C@@H](Cc1c[nH]c2ccccc12)C(=O)N[C@@H](Cc1ccccc1)C(=O)N[C@@H](CO)C(=O)N[C@@H](CCCCN)C(=O)N[C@@H](Cc1ccccc1)C(=O)N[C@H](CC(C)C)C(=O)NCC(=O)N[C@@H](CCCNC(=N)N)C(=O)N[C@H](C(=O)N[C@@H](CC(C)C)C(N)=O)[C@@H](C)CC)C(C)C [Compound 3A, CH3(CH2)5CO-Phe-Val-Pro-Trp-Phe-Ser-Lys-Phe-DLeu-Gly-Arg-Ile-Leu-NH2] (Heptanoyl-FVPWFSKF[dL]GRIL-NH2)
- Antimicrobial activity (MIC) S. aureus ATCC 25923 (S. aureus ATCC 25923; ATCC 25923): 12.5 µM

Compound: CCCCCCC(=O)NCCC[C@H](NC(=O)[C@H](CC(C)C)NC(=O)[C@@H](NC(=O)[C@H](CCCNC(=N)N)NC(=O)[C@@H](CCCCN)NC(=O)[C@@H](CC(C)C)NC(=O)[C@H](Cc1ccccc1)NC(=O)[C@H](CCCCN)NC(=O)[C@H](CO)NC(=O)[C@H](Cc1ccccc1)NC(=O)[C@H](Cc1c[nH]c2ccccc12)NC(=O)[C@@H]1CCCN1C(=O)[C@@H](NC(=O)[C@@H](N)Cc1ccccc1)C(C)C)[C@@H](C)CC)C(N)=O [E, H-Phe-Val-Pro-Trp-Phe-Ser-Lys-Phe-DLeu-DLys-Arg-Ile-Leu-Orn(NHCO(CH2)5CH3)-NH2] (H-FVPWFSKF[dL][dK]RIL[Orn](Heptanoyl)-NH2)
- Antimicrobial activity (MIC) K. pneumoniae ATCC BAA-1705 ([1]; ATCC BAA-1705): 50 µM
- Antimicrobial activity (MIC) S. aureus ATCC 25923 (S. aureus ATCC 25923; ATCC 25923): 25 µM

Compound: CC[C@H](C)[C@H](NC(=O)[C@H](CCCNC(=N)N)NC(=O)CNC(=O)[C@@H](CC(C)C)NC(=O)[C@H](Cc1ccccc1)NC(=O)[C@H](CCCCN)NC(=O)[C@H](CO)NC(=O)[C@H](Cc1ccccc1)NC(=O)[C@H](Cc1c[nH]c2ccccc12)NC(=O)[C@@H]1CCCN1C(=O)[C@@H](NC(=O)[C@@H](N)Cc1ccccc1)C(C)C)C(=O)N[C@@H](CC(C)C)C(N)=O [Compound 1A, H-Phe-Val-Pro-Trp-Phe-Ser-Lys-Phe-dLeu-Gly-Arg-Ile-Leu-NH2] (H-FVPWFSKF[dL]GRIL-NH2)
- Antimicrobial activity (MIC) P. aeruginosa ATCC 27853 (P. aeruginosa ATCC 27853): 50 µM
- Antimicrobial activity (MIC) K. pneumoniae ATCC BAA-1705 [1, 2]: 50 µM
- Antimicrobial activity (MIC) S. aureus ATCC 25923 (S. aureus ATCC 25923; [2]): 6.25 µM

Compound: CCCCCCCCCCC(=O)N[C@@H](Cc1ccccc1)C(=O)N[C@H](C(=O)N1CCC[C@H]1C(=O)N[C@@H](Cc1c[nH]c2ccccc12)C(=O)N[C@@H](Cc1ccccc1)C(=O)N[C@@H](CO)C(=O)N[C@@H](CCCCN)C(=O)N[C@@H](Cc1ccccc1)C(=O)N[C@H](CC(C)C)C(=O)NCC(=O)N[C@@H](CCCNC(=N)N)C(=O)N[C@H](C(=O)N[C@@H](CC(C)C)C(N)=O)[C@@H](C)CC)C(C)C [Compound 4A, CH3(CH2)9CO-Phe-Val-Pro-Trp-Phe-Ser-Lys-Phe-DLeu-Gly-Arg-Ile-Leu-NH2] (Undecanoyl-FVPWFSKF[dL]GRIL-NH2)
- Antimicrobial activity (MIC) P. aeruginosa ATCC 27853 (P. aeruginosa ATCC 27853): > 100 µM
- Antimicrobial activity (MIC) K. pneumoniae ATCC BAA-1705 [1, 2]: > 100 µM
- Antimicrobial activity (MIC) S. aureus ATCC 25923 (S. aureus ATCC 25923; [2]): > 100 µM

Compound: CN[C@H](CC(C)C)C(=O)N[C@H]1C(=O)N[C@@H](CC(N)=O)C(=O)N[C@H]2C(=O)N[C@H]3C(=O)N[C@H](C(=O)N[C@H](C(=O)O)c4cc(O)cc(O)c4-c4cc3ccc4O)[C@H](O)c3ccc(c(Cl)c3)Oc3cc2cc(c3O[C@@H]2O[C@H](CO)[C@@H](O)[C@H](O)[C@H]2O[C@H]2C[C@](C)(N)[C@H](O)[C@H](C)O2)Oc2ccc(cc2Cl)[C@H]1O [Vancomycin]
- MIC (S. aureus ATCC 25923; Staphylococcus aureus, ATCC25923, read-out: Antimicrobial activity (MIC) S. aureus ATCC 25923): 2 µg/mL (≈ 1.38 µM)
- MIC (Sa1): 2 µg/mL (≈ 1.38 µM)
- MIC (Sa2): 1 µg/mL (≈ 0.69 µM)
- MIC (Sa3): 2 µg/mL (≈ 1.38 µM)

Compound: CCCCC(=O)NCCC[C@H](NC(=O)[C@H](CC(C)C)NC(=O)[C@@H](NC(=O)[C@H](CCCNC(=N)N)NC(=O)[C@@H](CCCCN)NC(=O)[C@@H](CC(C)C)NC(=O)[C@H](Cc1ccccc1)NC(=O)[C@H](CCCCN)NC(=O)[C@H](CO)NC(=O)[C@H](Cc1ccccc1)NC(=O)[C@H](Cc1c[nH]c2ccccc12)NC(=O)[C@@H]1CCCN1C(=O)[C@@H](NC(=O)[C@@H](N)Cc1ccccc1)C(C)C)[C@@H](C)CC)C(N)=O [D, H-Phe-Val-Pro-Trp-Phe-Ser-Lys-Phe-DLeu-DLys-Arg-Ile-Leu-Orn(NHCO(CH2)3CH3)-NH2] (H-FVPWFSKF[dL][dK]RIL[Orn](Pentanoyl)-NH2)
- Antimicrobial activity (MIC) K. pneumoniae ATCC BAA-1705 ([1]; ATCC BAA-1705): 50 µM
- Antimicrobial activity (MIC) S. aureus ATCC 25923 (S. aureus ATCC 25923; ATCC 25923): 25 µM

Compound: CCCCCCCCCCCCC(=O)N[C@@H](Cc1ccccc1)C(=O)N[C@H](C(=O)N1CCC[C@H]1C(=O)N[C@@H](Cc1c[nH]c2ccccc12)C(=O)N[C@@H](Cc1ccccc1)C(=O)N[C@@H](CO)C(=O)N[C@@H](CCCCN)C(=O)N[C@@H](Cc1ccccc1)C(=O)N[C@H](CC(C)C)C(=O)NCC(=O)N[C@@H](CCCNC(=N)N)C(=O)N[C@H](C(=O)N[C@@H](CC(C)C)C(N)=O)[C@@H](C)CC)C(C)C [Compound 5A, CH3(CH2)11CO-Phe-Val-Pro-Trp-Phe-Ser-Lys-Phe-DLeu-Gly-Arg-Ile-Leu-NH2] (Tridecanoyl-FVPWFSKF[dL]GRIL-NH2)
- Antimicrobial activity (MIC) P. aeruginosa ATCC 27853 (P. aeruginosa ATCC 27853): > 100 µM
- Antimicrobial activity (MIC) K. pneumoniae ATCC BAA-1705 [1, 2]: > 100 µM
- Antimicrobial activity (MIC) S. aureus ATCC 25923 (S. aureus ATCC 25923; [2]): > 100 µM

Compound: CCCCCCCCCCCCC(=O)N[C@@H](Cc1ccccc1)C(=O)N[C@H](C(=O)N1CCC[C@H]1C(=O)N[C@@H](Cc1c[nH]c2ccccc12)C(=O)N[C@@H](Cc1ccccc1)C(=O)N[C@@H](CO)C(=O)N[C@@H](CCCCN)C(=O)N[C@@H](Cc1ccccc1)C(=O)N[C@H](CC(C)C)C(=O)N[C@H](CCCCN)C(=O)N[C@@H](CCCNC(=N)N)C(=O)N[C@H](C(=O)N[C@@H](CC(C)C)C(N)=O)[C@@H](C)CC)C(C)C [Compound 5B, CH3(CH2)11CO-Phe-Val-Pro-Trp-Phe-Ser-Lys-Phe-DLeu-DLys-Arg-Ile-Leu-NH2] (Tridecanoyl-FVPWFSKF[dL][dK]RIL-NH2)
- Antimicrobial activity (MIC) P. aeruginosa ATCC 27853 (P. aeruginosa ATCC 27853): > 100 µM
- Antimicrobial activity (MIC) K. pneumoniae ATCC BAA-1705 [1, 2]: > 100 µM
- Antimicrobial activity (MIC) S. aureus ATCC 25923 (S. aureus ATCC 25923; [2]): > 100 µM

Compound: CCCCC(=O)N[C@@H](Cc1ccccc1)C(=O)N[C@H](C(=O)N1CCC[C@H]1C(=O)N[C@@H](Cc1c[nH]c2ccccc12)C(=O)N[C@@H](Cc1ccccc1)C(=O)N[C@@H](CO)C(=O)N[C@@H](CCCCN)C(=O)N[C@@H](Cc1ccccc1)C(=O)N[C@H](CC(C)C)C(=O)NCC(=O)N[C@@H](CCCNC(=N)N)C(=O)N[C@H](C(=O)N[C@@H](CC(C)C)C(N)=O)[C@@H](C)CC)C(C)C [Compound 2A, CH3(CH2)3CO-Phe-Val-Pro-Trp-Phe-Ser-Lys-Phe-DLeu-Gly-Arg-Ile-Leu-NH2] (Pentanoyl-FVPWFSKF[dL]GRIL-NH2)
- Antimicrobial activity (MIC) S. aureus ATCC 25923 (S. aureus ATCC 25923; ATCC 25923): 12.5 µM

Compound: CCCCCCCCCCC(=O)N[C@@H](Cc1ccccc1)C(=O)N[C@H](C(=O)N1CCC[C@H]1C(=O)N[C@@H](Cc1c[nH]c2ccccc12)C(=O)N[C@@H](Cc1ccccc1)C(=O)N[C@@H](CO)C(=O)N[C@@H](CCCCN)C(=O)N[C@@H](Cc1ccccc1)C(=O)N[C@H](CC(C)C)C(=O)N[C@H](CCCCN)C(=O)N[C@@H](CCCNC(=N)N)C(=O)N[C@H](C(=O)N[C@@H](CC(C)C)C(N)=O)[C@@H](C)CC)C(C)C [Compound 4B, CH3(CH2)9CO-Phe-Val-Pro-Trp-Phe-Ser-Lys-Phe-DLeu-DLys-Arg-Ile-Leu-NH2] (Undecanoyl-FVPWFSKF[dL][dK]RIL-NH2)
- Antimicrobial activity (MIC) P. aeruginosa ATCC 27853 (P. aeruginosa ATCC 27853): > 100 µM
- Antimicrobial activity (MIC) K. pneumoniae ATCC BAA-1705 [1, 2]: > 100 µM
- Antimicrobial activity (MIC) S. aureus ATCC 25923 (S. aureus ATCC 25923; [2]): > 100 µM
